Results from ChEMBL document CHEMBL1150976, “The selectivity of protein kinase inhibitors: a further update” (Biochem J, 2007).

Experiments:
[1] = target: Serine/threonine-protein kinase PAK 6 (Homo sapiens) (UniProt Q9NQU5); experiment: Percentage PAK6 activity remaining in the presence of 0.1uM inhibitor
[2] = target: T1, Serine/threonine-protein kinase Chk1 (Homo sapiens) (UniProt O14757); experiment: Percentage CHK1 activity remaining in the presence of 0.1uM inhibitor
T1 sequence (whole entry): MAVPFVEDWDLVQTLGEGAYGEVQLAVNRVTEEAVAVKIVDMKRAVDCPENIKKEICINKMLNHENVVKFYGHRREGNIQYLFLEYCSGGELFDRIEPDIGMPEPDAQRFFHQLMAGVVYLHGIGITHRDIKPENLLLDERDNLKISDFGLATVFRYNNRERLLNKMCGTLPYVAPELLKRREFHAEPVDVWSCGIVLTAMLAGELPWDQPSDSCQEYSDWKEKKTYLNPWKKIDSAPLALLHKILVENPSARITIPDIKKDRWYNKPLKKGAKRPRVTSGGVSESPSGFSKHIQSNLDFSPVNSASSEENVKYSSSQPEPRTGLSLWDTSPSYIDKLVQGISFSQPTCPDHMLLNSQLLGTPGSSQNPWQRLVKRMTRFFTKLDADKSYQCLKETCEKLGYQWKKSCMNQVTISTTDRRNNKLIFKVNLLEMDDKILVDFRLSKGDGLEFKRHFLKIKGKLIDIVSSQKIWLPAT

[3] = target: T2, Eukaryotic elongation factor 2 kinase (Homo sapiens) (UniProt O00418); experiment: Percentage EF2K activity remaining in the presence of 0.1uM inhibitor
T2 sequence (whole entry): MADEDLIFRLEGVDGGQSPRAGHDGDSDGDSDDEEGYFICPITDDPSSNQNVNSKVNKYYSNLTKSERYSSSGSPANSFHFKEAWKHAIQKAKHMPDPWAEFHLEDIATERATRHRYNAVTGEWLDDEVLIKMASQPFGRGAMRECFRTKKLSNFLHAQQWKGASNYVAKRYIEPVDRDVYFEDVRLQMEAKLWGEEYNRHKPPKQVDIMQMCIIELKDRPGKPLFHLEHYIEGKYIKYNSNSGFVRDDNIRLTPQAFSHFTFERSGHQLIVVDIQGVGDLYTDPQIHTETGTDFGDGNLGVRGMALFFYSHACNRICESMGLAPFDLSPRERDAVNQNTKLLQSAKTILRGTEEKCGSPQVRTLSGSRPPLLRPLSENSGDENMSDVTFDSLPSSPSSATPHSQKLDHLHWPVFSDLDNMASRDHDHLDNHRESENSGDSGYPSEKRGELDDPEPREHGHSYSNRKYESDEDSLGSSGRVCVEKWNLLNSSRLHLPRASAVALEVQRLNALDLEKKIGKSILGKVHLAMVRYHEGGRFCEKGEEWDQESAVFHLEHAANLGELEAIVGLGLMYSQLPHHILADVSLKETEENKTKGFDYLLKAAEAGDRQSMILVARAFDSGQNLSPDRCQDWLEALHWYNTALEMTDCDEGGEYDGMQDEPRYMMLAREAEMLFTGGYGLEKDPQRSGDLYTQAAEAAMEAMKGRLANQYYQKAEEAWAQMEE

[4] = target: Ribosomal protein S6 kinase beta-1 (Homo sapiens, UniProt P23443); experiment: Percentage S6K1 activity remaining in the presence of 0.1uM inhibitor
Sequence of Ribosomal protein S6 kinase beta-1 (P23443 whole entry, looked up): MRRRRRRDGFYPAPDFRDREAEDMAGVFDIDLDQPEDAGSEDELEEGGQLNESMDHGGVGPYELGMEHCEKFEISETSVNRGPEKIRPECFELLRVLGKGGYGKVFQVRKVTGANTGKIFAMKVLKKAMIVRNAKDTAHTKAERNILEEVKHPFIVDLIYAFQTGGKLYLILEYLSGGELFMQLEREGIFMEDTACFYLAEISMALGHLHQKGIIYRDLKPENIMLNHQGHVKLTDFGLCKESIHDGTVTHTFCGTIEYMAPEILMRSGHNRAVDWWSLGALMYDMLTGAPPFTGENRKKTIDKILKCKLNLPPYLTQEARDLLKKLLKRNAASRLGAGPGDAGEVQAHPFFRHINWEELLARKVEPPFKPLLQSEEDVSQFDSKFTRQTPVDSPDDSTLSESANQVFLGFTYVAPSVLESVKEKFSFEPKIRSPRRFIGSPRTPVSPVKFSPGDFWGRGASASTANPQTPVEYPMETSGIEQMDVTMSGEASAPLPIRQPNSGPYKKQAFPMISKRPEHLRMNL

[5] = target: Mitogen-activated protein kinase 11 (Homo sapiens) (UniProt Q15759); experiment: Percentage p38beta activity remaining in the presence of 0.1uM inhibitor
Sequence of Mitogen-activated protein kinase 11 (Homo sapiens) (Q15759 whole entry): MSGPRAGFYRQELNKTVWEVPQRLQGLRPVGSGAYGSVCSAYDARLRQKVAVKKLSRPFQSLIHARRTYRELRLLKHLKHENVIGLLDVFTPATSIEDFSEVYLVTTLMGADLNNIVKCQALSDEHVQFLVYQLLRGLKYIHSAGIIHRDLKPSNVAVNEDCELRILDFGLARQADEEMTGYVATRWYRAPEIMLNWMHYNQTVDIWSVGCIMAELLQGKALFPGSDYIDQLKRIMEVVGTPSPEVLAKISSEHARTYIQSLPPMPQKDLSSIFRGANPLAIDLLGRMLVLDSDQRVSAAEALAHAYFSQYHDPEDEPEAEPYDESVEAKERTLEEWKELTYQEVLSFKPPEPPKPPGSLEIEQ

[6] = target: T3, Inhibitor of nuclear factor kappa-B kinase subunit beta (Homo sapiens) (UniProt O14920); experiment: Percentage IKK-beta activity remaining in the presence of 0.1uM inhibitor
T3 sequence (whole entry): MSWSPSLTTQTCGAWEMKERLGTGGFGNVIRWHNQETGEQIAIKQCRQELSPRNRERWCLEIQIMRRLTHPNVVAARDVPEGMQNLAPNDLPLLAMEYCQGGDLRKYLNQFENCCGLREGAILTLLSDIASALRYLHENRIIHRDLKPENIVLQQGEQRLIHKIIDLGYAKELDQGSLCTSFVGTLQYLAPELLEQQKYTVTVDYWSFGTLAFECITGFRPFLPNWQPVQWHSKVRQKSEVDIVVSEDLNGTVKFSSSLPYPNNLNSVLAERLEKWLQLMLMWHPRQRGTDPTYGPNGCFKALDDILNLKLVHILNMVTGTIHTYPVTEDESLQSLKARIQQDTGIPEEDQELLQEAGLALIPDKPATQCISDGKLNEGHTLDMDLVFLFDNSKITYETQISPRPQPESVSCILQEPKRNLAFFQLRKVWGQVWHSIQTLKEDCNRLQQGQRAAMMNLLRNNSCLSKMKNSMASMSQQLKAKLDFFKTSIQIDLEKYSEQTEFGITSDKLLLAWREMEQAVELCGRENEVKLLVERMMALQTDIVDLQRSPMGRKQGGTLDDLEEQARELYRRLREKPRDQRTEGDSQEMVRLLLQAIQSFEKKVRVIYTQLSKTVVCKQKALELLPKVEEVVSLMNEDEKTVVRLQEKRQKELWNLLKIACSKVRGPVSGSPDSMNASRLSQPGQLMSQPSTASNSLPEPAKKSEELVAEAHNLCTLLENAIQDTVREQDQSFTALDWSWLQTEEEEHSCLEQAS

[7] = species on record: Rattus norvegicus; experiment: Percentage AMPK activity remaining in the presence of 0.1uM inhibitor
[8] = target: Calcium/calmodulin-dependent protein kinase kinase 1 (Homo sapiens) (UniProt Q8N5S9); experiment: Percentage CaMKKalpha activity remaining in the presence of 0.1uM inhibitor
Sequence of Calcium/calmodulin-dependent protein kinase kinase 1 (Homo sapiens) (Q8N5S9 whole entry, looked up): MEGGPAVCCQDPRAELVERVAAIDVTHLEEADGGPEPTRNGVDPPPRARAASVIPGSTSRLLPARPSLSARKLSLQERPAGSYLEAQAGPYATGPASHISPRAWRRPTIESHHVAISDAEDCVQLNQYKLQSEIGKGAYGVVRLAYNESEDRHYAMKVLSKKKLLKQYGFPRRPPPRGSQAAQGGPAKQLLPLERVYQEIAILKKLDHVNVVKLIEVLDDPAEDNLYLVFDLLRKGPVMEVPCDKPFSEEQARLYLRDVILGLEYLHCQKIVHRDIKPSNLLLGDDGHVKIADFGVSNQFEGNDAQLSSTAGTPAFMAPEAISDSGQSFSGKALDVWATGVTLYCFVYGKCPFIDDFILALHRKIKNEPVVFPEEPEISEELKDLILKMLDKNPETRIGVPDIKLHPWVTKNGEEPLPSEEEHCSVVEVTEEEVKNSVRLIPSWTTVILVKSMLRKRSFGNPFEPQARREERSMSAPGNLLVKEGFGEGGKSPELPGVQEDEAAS

[9] = target: Serine/threonine-protein kinase N2 (Homo sapiens) (UniProt Q16513); experiment: Percentage PRK2 activity remaining in the presence of 0.1uM inhibitor
Sequence of Serine/threonine-protein kinase N2 (Homo sapiens) (Q16513 whole entry, looked up): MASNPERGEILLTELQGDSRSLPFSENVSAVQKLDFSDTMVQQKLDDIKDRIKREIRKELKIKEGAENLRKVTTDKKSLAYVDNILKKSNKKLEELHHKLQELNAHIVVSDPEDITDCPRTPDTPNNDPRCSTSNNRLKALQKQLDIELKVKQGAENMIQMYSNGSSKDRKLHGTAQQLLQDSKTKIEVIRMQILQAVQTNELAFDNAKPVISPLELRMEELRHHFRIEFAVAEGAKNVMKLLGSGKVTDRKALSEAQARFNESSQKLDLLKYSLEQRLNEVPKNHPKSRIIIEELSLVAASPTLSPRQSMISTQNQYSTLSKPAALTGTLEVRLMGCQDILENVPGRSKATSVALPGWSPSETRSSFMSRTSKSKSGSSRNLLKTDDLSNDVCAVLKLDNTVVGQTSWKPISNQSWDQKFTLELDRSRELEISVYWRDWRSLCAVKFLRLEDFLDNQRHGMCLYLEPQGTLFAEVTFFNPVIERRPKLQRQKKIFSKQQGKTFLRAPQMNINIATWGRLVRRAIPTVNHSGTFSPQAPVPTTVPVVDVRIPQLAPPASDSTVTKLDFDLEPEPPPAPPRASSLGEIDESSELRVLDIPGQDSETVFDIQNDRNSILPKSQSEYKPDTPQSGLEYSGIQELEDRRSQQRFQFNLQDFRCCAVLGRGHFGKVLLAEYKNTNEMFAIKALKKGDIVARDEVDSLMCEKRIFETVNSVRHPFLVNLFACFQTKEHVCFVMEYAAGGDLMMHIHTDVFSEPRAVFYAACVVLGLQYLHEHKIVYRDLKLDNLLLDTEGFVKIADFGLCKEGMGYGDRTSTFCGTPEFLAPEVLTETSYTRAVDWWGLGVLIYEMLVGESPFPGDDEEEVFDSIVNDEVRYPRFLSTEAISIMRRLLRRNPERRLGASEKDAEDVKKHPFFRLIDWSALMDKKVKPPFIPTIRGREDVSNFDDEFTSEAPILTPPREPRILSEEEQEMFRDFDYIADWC

[10] = target: T4, Serine/threonine-protein kinase Sgk1 (Homo sapiens) (UniProt O00141); experiment: Percentage SGK1 activity remaining in the presence of 0.1uM inhibitor
T4 sequence (whole entry): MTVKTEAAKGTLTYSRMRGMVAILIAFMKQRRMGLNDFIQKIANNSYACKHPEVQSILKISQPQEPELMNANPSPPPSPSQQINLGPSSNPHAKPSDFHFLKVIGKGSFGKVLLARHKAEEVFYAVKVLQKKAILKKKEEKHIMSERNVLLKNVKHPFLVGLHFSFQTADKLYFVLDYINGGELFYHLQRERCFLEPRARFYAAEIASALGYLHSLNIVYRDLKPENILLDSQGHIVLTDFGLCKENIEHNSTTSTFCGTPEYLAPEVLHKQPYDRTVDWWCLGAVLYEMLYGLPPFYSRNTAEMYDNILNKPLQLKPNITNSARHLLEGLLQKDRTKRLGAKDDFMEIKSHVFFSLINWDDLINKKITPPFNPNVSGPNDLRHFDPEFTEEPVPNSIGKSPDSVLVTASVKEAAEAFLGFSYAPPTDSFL

Sequence of Serine/threonine-protein kinase PAK 6 (Homo sapiens) (Q9NQU5 whole entry, looked up): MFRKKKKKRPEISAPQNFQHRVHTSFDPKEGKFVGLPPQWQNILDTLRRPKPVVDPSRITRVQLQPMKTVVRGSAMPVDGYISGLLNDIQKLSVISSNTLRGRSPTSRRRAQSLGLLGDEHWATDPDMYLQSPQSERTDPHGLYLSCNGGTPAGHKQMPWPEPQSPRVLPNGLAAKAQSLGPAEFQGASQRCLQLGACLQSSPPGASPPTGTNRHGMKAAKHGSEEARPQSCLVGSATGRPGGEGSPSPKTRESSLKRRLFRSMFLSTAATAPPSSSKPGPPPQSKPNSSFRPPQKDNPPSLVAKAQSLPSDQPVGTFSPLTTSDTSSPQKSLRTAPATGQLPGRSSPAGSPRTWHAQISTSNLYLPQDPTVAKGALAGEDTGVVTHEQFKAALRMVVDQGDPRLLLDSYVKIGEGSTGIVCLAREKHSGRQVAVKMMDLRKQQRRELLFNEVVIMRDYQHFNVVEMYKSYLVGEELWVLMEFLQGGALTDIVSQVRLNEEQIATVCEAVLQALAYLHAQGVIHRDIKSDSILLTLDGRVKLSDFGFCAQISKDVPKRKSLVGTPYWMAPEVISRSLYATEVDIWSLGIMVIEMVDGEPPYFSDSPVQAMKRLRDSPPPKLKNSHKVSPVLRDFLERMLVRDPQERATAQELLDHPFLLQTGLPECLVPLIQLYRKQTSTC

| SMILES | Activity [1] | Activity [2] | Activity [3] | Activity ([4]; filed as antagonist) | Activity [5] | Activity [6] | Activity [7] | Activity [8] | Activity ([9]; filed as antagonist) | Activity [10] | Activity [4] | Activity [9] | Activity ([1]; filed as antagonist) | Activity ([2]; filed as antagonist) | Activity ([8]; filed as antagonist) | Activity ([10]; filed as antagonist) | Activity ([7]; filed as antagonist) |
| --- | --- | --- | --- | --- | --- | --- | --- | --- | --- | --- | --- | --- | --- | --- | --- | --- | --- |
| Cc1n[nH]c2ccc(-c3cncc(OC[C@@H](N)Cc4c[nH]c5ccccc45)c3)cc12 | 87% | 99% | 94% | 32% | 105% | 89% | 67% | 117% | 2% | 53% | – | – | – | – | – | – | – |
| CC(C)[C@H](CO)Nc1nc(Nc2cccc(Cl)c2)c2ncn(C(C)C)c2n1 [PURVALANOLA] | 67% | 95% | 95% | – | 90% | 89% | 89% | 76% | – | 82% | 87% | 81% | – | – | – | – | – |
| Cn1c2ccccc2c2c3c(c4c5ccccc5n(CCC#N)c4c21)CNC3=O | – | – | 100% | 12% | 100% | 76% | – | – | 5% | – | – | – | 6% | 1% | 27% | 44% | – |
| CC(C)CCN1c2nc(Nc3cc(F)c(O)c(F)c3)ncc2N(C)C(=O)C1C (centres undefined) | 102% | 73% | 88% | – | 100% | 106% | 108% | 92% | – | 112% | 119% | 97% | – | – | – | – | – |
| CN(C)C[C@@H]1CCn2cc(c3ccccc32)C2=C(C(=O)NC2=O)c2cn(c3ccccc23)CCO1 | 81% | 71% | 90% | – | 109% | 86% | 71% | 97% | 38% | 66% | 52% | – | – | – | – | – | – |
| Cn1cc(C2=C(c3cn(CCCSC(=N)N)c4ccccc34)C(=O)NC2=O)c2ccccc21 | 76% | 59% | 101% | 20% | 99% | 91% | 84% | 104% | 8% | – | – | – | – | – | – | 39% | – |
| O=C(NCCCNc1nc(Nc2cccc(NC(=O)N3CCCC3)c2)ncc1I)c1cccs1 | 85% | – | 93% | – | 71% | 93% | – | 69% | 43% | – | 84% | – | – | 46% | – | 48% | 11% |
